Data published in patent USRE38329E1, “Chelated complexes of paramagnetic metals with low toxicity” (Bracco Imaging S.p.A., priority 1997, dated 2003).

tested on: mouse; assay: DL50 after intracerebroventricular administration to the mouse (neurotoxicity / molecular toxicity); type: in vivo
Description: DL50 values after intracerebral administration (intracisternal, intracerebroventricular), for example in the mouse and in the rat, can therefore be taken as a highly sensitive index of the molecular toxicity of the contrast agent (Toxicology Letters, cited ref.). In particular, the intracerebroventricular administration seems to be the most sensitive to discriminate the neurotoxicity of the compounds (Proceedings of the 10th National Congress of the Italian Toxicology Society, Pavia, September 21-24th, 100, 1994).
The present invention relates to chelated complexes of paramagnetic metals characterized by an extremely favourable neurotoxicity profile. […] The compound described in example 1 (gadolinium complex of 10-[2-[[2-(2-hydroxyethoxy)ethyl]amino]-2-oxoethyl]-α,α′,α″-tris(hydroxymethyl)-1,4,7,10-tetraazacyclododecane-1,4,7-triacetic) acid has, for example, a DL50 of 0.23 mmol/kg after intracerebroventricular administration to the mouse. The compounds described in example 2 (gadolinium complex of α,α′,α″-tris (hydroxymethyl)-10-(2-hydroxypropyl)-1,4,7,10-tetraazacyclododecane-1,4,7-triacetic acid) and in Example 4 (Na^+Gd[THM-DOTA]^−) have a very good tolerability as well, with a DL50, after intracerebroventricular administration to the mouse, of 0.170 and 0.150 mmol/kg, respectively; the corresponding value for Gd-DOTA being 0.064 mmol/kg.

Question: Which “DL50 after intracerebroventricular administration to the mouse” value (shortened to “DL50”) does the source give for `O=C([O-])CN1C[C@@H](CO)N(CC(=O)[O-])C[C@@H](CO)N(CC(=O)[O-])C[C@@H](CO)N(CC(=O)[O-])C[C@H]1CO.[Gd+3].[Na+]` (relative stereo) [Example 4, Gadolinium complex of [2S-(2R*,5R*,8R*,11R*)]-2,5,8,11-tetra(hydroxymethyl)-1,4,7,10-tetraazacyclododecane-1,4,7,10-tetraacetic acid sodium salt (1:1)] here?
Answer: 0.150 mmol/kg

Question: Which “DL50” value does the source give for `O=C(CN1CCN(C(CO)C(=O)[O-])CCN(C(CO)C(=O)[O-])CCN(C(CO)C(=O)[O-])CC1)NCCOCCO.[Gd+3]` (stereo not drawn) [Example 1, Gadolinium complex of 10-[2-[[2-(2-hydroxyethoxy)ethyl]amino]-2-oxoethyl]-α,α′,α″-tris(hydroxymethyl)-1,4,7,10-tetraazacyclododecane-1,4,7-triacetic acid] here?
Answer: 0.23 mmol/kg

Question: With `O=C([O-])CN1CCN(CC(=O)[O-])CCN(CC(=O)[O-])CCN(CC(=O)[O-])CC1.[Gd+3]` [Gd-DOTA, reference compound] as the compound, how does the “DL50” value read?
Answer: 0.064 mmol/kg
